Data: ChEMBL document CHEMBL2424644, “Synthesis and antiproliferative evaluation of novel benzoimidazole-contained oxazole-bridged analogs of combretastatin A-4” (Eur J Med Chem, 2013)

Experiments:
Mus musculus [1] = test: Toxicity in KM mouse allografted with mouse H22 cells assessed as body weight at 0.5 mg/kg, ip administered on day 1 and 4 measured on day 8 (reference value: 30 +/- 3.24 g); assay type: organism-based; design: dose 0.5 mg/kg, route intraperitoneal; settings: in vivo
Mus musculus [2] = test: Toxicity in KM mouse allografted with mouse H22 cells assessed as body weight at 0.25 mg/kg, ip administered on day 1 and 4 measured on day 8 (reference value: 30 +/- 3.24 g); assay type: organism-based; design: dose 0.25 mg/kg, route intraperitoneal; settings: in vivo
H22 [3] = test: Antitumor activity against mouse H22 cells allografted in KM mouse assessed as tumor growth inhibition at 0.5 mg/kg, ip administered on day 1 and 4 measured on day 8 relative to control; assay type: functional; settings: route intraperitoneal, read-out: TGI
H22 [4] = test: Antitumor activity against mouse H22 cells allografted in KM mouse assessed as tumor growth inhibition at 0.25 mg/kg, ip administered on day 1 and 4 measured on day 8 relative to control; assay type: functional; settings: route intraperitoneal, read-out: TGI
MX1 [5] = test: Cytotoxicity against taxol-resistant human MX1 cells assessed as growth inhibition after 72 hrs by MTT assay; assay type: functional, cell-based; settings: MX1, 72 h
MX1 [6] = test: Cytotoxicity against human MX1 cells assessed as growth inhibition after 72 hrs by MTT assay; assay type: functional, cell-based; settings: MX1, 72 h
KB [7] = test: Cytotoxicity against vincristine-resistant human KB cells assessed as growth inhibition after 72 hrs by MTT assay; assay type: functional, cell-based
KB [8] = test: Cytotoxicity against human KB cells assessed as growth inhibition after 72 hrs by MTT assay; assay type: functional, cell-based
BXPC-3 = test: Cytotoxicity against human BxPC3 cells assessed as growth inhibition after 72 hrs by MTT assay; assay type: functional, cell-based; settings: BXPC-3, 72 h
HT-29 = test: Cytotoxicity against human HT-29 cells assessed as growth inhibition after 72 hrs by MTT assay; assay type: functional, cell-based; settings: HT-29, 72 h
HepG2 = test: Cytotoxicity against human HepG2 cells assessed as growth inhibition after 72 hrs by MTT assay; assay type: functional, cell-based; settings: HepG2, 72 h
A549 = test: Cytotoxicity against human A549 cells assessed as growth inhibition after 72 hrs by MTT assay; assay type: functional, cell-based; settings: A549, 72 h
MCF7 = test: Cytotoxicity against human MCF7 cells assessed as growth inhibition after 72 hrs by MTT assay; assay type: functional, cell-based; settings: MCF7, 72 h

Compound	Activity (Mus musculus [1])	Activity (Mus musculus [2])	inhibition in vivo at 0.5 mg/kg (H22 [3])	inhibition in vivo at 0.25 mg/kg (H22 [4])	IC50 (MX1 [5])	IC50 (MX1 [6])	IC50 (KB [7])	IC50 (KB [8])	IC50 (BXPC-3)	IC50 (HT-29)	IC50 (HepG2)	IC50 (A549)	IC50 (MCF7)
CC[C@]1(O)C[C@H]2CN(CCc3c([nH]c4ccccc34)[C@@](C(=O)OC)(c3cc4c(cc3OC)N(C=O)[C@H]3[C@@](O)(C(=O)OC)[C@H](OC(C)=O)[C@]5(CC)C=CCN6CC[C@]43[C@@H]65)C2)C1 [VINCRISTINE]	25.5 g	24.6 g	61%	31%	75 nM	12 nM	> 100000 nM	139 nM	> 500 nM	12 nM	210 nM	53 nM	13 nM
COc1cc(-c2ncoc2-c2ccc(OC)c3c2ncn3CC(=O)O)cc(OC)c1OC									> 5000 nM	> 5000 nM	> 5000 nM	> 5000 nM	> 5000 nM
COc1cc(-c2ncoc2-c2ccc(OC)c3c2ncn3CC#N)cc(OC)c1OC									2190 nM	190 nM	77 nM	2600 nM	89 nM
COc1cc(-c2ncoc2-c2ccc(OC)c3ncn(CC#N)c23)cc(OC)c1OC									1390 nM	1600 nM	870 nM	> 5000 nM	2050 nM
COc1cc(-c2ncoc2-c2ccc(OC)c3ncn(CC(N)=O)c23)cc(OC)c1OC									1390 nM	1600 nM	870 nM	> 5000 nM	2050 nM
CCOC(=O)Cn1cnc2c(OC)ccc(-c3ocnc3-c3cc(OC)c(OC)c(OC)c3)c21									> 500 nM	350 nM	500 nM	23.4 nM	419 nM
COc1cc(-c2ncoc2-c2ccc(OC)c3ncn(CCO)c23)cc(OC)c1OC										180 nM	130 nM		540 nM
COc1cc(-c2ncoc2-c2ccc(OC)c3c2ncn3CCCO)cc(OC)c1OC					21100 nM	> 10000 nM	> 10000 nM	406 nM		2220 nM	410 nM		2110 nM
COC(=O)n1cnc2c(-c3ocnc3-c3cc(OC)c(OC)c(OC)c3)ccc(OC)c21					4860 nM	241 nM	53 nM	107 nM	45 nM	11 nM	25 nM	3 nM	47 nM
COc1ccc(/C=C\c2cc(OC)c(OC)c(OC)c2)cc1O [COMBRETASTATIN A4]					71 nM	52 nM	6 nM	8 nM	< 50 nM				220 nM
